One assay addresses mTOR (Homo sapiens (Human), UniProt P42345). As to the kind of experiment: Inhibitory activity on mTOR kinase (LANTHASCREEN TR-FRET). It is filed as biochemical. The settings on record: 1 hour reaction at room temperature.
Another assay concerns the target mTORC1 (Homo sapiens (Human), UniProt P42345). As to the kind of experiment: mTORC1 inhibitory activity: phosphorylation of S6RP in A431 cells (HTRF). It is filed as cell-based. The settings on record: 3 hours at 37° C. (In general: In TR-FRET formats the signal depends on donor and acceptor labels being close together.)
The next assay concerns the target mTORC2 (Homo sapiens (Human), UniProt P42345). Briefly: mTORC2 inhibitory activity: phosphorylation of AKT in A431 cells (HTRF). It is filed as cell-based. The following applies: 3 hours at 37° C.
For assay [1], the system named is patch model of atopic dermatitis. As to the kind of experiment: Patch model of atopic dermatitis (DERP epicutaneous sensitization) in mice. It is filed as in vivo, Balb/c mice. The settings on record: 0.07% in acetone vehicle, topical. Here is the method:
The antagonist (mTOR inhibitor) according to example 31 tested was formulated at 0.07% in an acetone vehicle, applied to the skin of the back of the mouse (10 μl/ear on the two faces) and left for 2 hours before applying the DERP patches. Topical treatments with the antagonist (mTOR inhibitor) or a corticosteroid (betamethasone 17-valerate at 0.01% used as control) were performed only three times in the course of the third and final week of sensitization (on days 44, 47 and 50).
The transepidermal water loss TEWL is measured using a […]® on a control animal. The […]® probe measures the density gradient of water evaporation from the skin indirectly by means of two pairs of sensors (temperature and relative humidity) inside a hollow cylinder. A microprocessor analyzes the values and expresses the evaporation rate in g/h/m2.
The epidermal thickness is measured by histological morphometric analyses on sections 6 μm thick stained with HE using skin samples fixed beforehand with […].
The inflammation score is defined visually as a function of predefined scales of dryness, cutaneous eruption, baldness, excoriation and lichenification. The mean of the five scores attributed to an individual mouse on a given day gives the clinical score attributed on that specific day.
To evaluate the contribution of mTOR to the inflammatory response of atopic dermatitis, the inventors used an atopic dermatitis model described previously based on repeated epicutaneous sensitizations (Spergel et al. JCI 1998; Staumont-Sallé et al. JEM 2015), with Dermatophagoides pteronyssinus (DERP) as antigen. In this model, the skin lesions caused by the atopic dermatitis present inflammation with Th2 dominant characterized by dermal infiltration of CD4+T lymphocytes and of eosinophils accompanied by deposition of eosinophil products and an increase in the cutaneous expression of the Th2 cytokines.
Following the protocol of example 33, the inflammatory response of atopic dermatitis was provoked by epicutaneous sensitization with patches soaked with 100 μg of allergen in sterile saline solution (Dermatophagoides pteronyssinus or DERP) or with a vehicle applied to the abdominal skin 24 hours after shaving and left in place for three periods of one week (with renewal of the patch in the middle of the week), with a 2-week interval between the applications. The presence of the patches and of a transparent occlusive dressing on top prevented the mice from licking, biting and scratching; consequently, the inflammatory response in this model is not due to the itching cycle.
The antagonist according to example 31 (mTOR inhibitor) was formulated at 0.07% in an acetone-based vehicle, applied to the sensitized skin 2 hours before installation of the DERP patches. […]

Where [2] appears, read: days 44, 47 and 50, female Balb/c mice, DERP patches.

Protocol for mTORC1: (§1) The serial dilutions of the test molecules are added (0.1% DMSO final). After incubation for 3 hours at 37° C., the phosphorylation of the biomarkers S6RP (mTORC1) and AKT (mTORC2) is measured using the HTRF technology (Cisbio) according to the supplier's recommendations. […] The IC50 values are calculated using a 4-parameter logistic model with the aid of the XLFit software (IDBS).
Protocol for mTORC2: as §1

Usually Ki stands for the dissociation constant of the complex between target and ligand, obtained from inhibition or displacement. What is called IC50 is the concentration at which inhibition is half-maximal. `CC(C)n1nc(-c2ccc3oc(N)nc3c2)c2c(Cl)nc(N)nc21` [Example 31, 5-(6-Amino-4-chloro-1-isopropyl-1H-pyrazolo[3,4-d]pyrimidin-3-yl)benzo[d]oxazol-2-amine]: the Ki on mTOR turned out to be 10 nM. Also, the IC50 against mTORC1 was 8.4 nM. For the same compound, the IC50 at mTORC2 was determined as 21 nM. Further, in assay [1] (setting [2]), the “change in epidermal thickness (epidermal acanthosis)” value is recorded as −39%, the “change in inflammatory scores” value was −40 and the “decrease of the increase in the rate of transepidermal water loss TEWL” value is recorded as −68%. In addition, the “effect on the parameters studied (TEWL, epidermal thickness, inflammation score)” value in assay [1] (DERP patch model in mice) is listed as “reduces all the parameters studied”.
